Among the data in PubChem BioAssay AID651849 (The Scripps Research Institute Molecular Screening Center, 2012) are IC50 values, retold here.

The target in the test is Photoreceptor-specific nuclear receptor (Homo sapiens) (UniProt Q9Y5X4). As to the kind of experiment: agonist-induced NR2E3-NCOR dissociation – cell-based, luminescence, CHO-S two-hybrid, late stage, dose response (AID 651849). The following applies: CHO-S Gal4-NCOR/VP16-NR2E3 two-hybrid, luciferase.
Photoreceptor-specific nuclear receptor (Homo sapiens), sequence (Q9Y5X4 whole entry, looked up, the tested form may be a part): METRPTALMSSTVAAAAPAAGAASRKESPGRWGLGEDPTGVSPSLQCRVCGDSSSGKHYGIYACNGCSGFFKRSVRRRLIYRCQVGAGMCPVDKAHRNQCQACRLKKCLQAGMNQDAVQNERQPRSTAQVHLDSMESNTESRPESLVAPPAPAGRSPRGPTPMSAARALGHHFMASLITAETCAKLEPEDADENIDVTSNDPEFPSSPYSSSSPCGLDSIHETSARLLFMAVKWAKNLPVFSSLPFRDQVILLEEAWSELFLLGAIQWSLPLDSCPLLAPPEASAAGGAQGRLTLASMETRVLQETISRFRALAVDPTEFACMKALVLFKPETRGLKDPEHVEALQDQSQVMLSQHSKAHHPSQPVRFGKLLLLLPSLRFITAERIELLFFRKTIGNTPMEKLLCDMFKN
The term IC50 denotes the concentration needed to halve the response being measured. `COc1ccc(OC)c(NC(=O)CSc2nnnn2-c2ccc3c(c2)OCO3)c1`: the 50% inhibitory concentration (IC50) was 301 nM.

Take `COc1cc2nc(CN3CC=C(c4ccccc4)CC3)[nH]c(=O)c2cc1OC`: the IC50 was 393 nM. Next, `O=C(CSc1nnnn1-c1ccc2c(c1)OCCO2)Nc1nc2c(s1)CCCC2`: 682 nM; `COc1ccc2c(CC(=O)Nc3ncc(C)s3)coc2c1`: 1920 nM. Turning to `O=C(CSc1nnnn1-c1ccc(O)cc1)Nc1ccc(N2CCOCC2)c(Cl)c1`, the IC50 is 1250 nM.

For the molecule `COc1cccc(N2CCN(c3nc(-c4ccccc4C)cc(=O)[nH]3)CC2)c1`, the IC50 is 428 nM. For `O=C(Nc1cccc(NC(=O)c2c(F)cccc2F)n1)c1c(F)cccc1F`, the IC50 was 7990 nM. The same measure for `O=C(O)CC1(CC(=O)Nc2cc(C(F)(F)F)cc(C(F)(F)F)c2)CCCCC1`: 4020 nM.

Regarding `Cc1cccc(C(=O)N[C@H](C(=O)Nc2ncc(C)s2)C(C)C)c1`, the IC50 is 324 nM. As to `Cc1cnc(NC(=O)Cc2ccc(Br)cc2)s1`, the IC50 was 2250 nM. The same measure for `Cc1ccc(NC(=O)CSc2nnnn2-c2ccc3c(c2)OCO3)cc1C`: 566 nM; for `Cc1ccc(CN2CC(C(=O)Nc3ncc(C)s3)CC2=O)cc1` (stereo unspecified): 516 nM. The same measure for `COc1cccc(NC(=O)CSc2nc3ncc(Br)cc3[nH]2)c1`: 3570 nM; for `Cc1cnc(NC(=O)CCCc2nc3ccccc3s2)s1`: 945 nM; for `NC(=O)c1nn(-c2ccccc2)nc1NC(=O)CSc1nnnn1-c1ccc(Cl)cc1`: 1570 nM. The same measure for `Cc1cnc(NC(=O)C2CC(=O)N(c3ccc4c(c3)OCCO4)C2)s1` (stereo unspecified): 7060 nM. On to `Cc1onc(-c2ccccc2Cl)c1C(=O)Nc1nc2c(s1)CCCC2`, for which the IC50 was 597 nM. The same measure for `O=c1c(Cl)c(N2CCN(c3ccc(F)cc3)CC2)cnn1C12CC3CC(CC(C3)C1)C2`: 3340 nM; for `Cc1cccc(OCCCC(=O)Nc2nc3ccccc3[nH]2)c1`: 5300 nM. Next, `Cc1ccnc(NC(=O)CSc2cc(=O)n(C)c3ccccc23)c1`: 1430 nM. The same measure for `COc1ccc(S(=O)(=O)N2CCCCC2)cc1NC(=S)Nc1cccc(Cl)c1C`: 1500 nM. `COc1ccc(NC2c3ccccc3C(=O)N2Cc2ccccc2Cl)cc1OC` (stereo unspecified): the IC50 is 4840 nM. Next, `Cc1cc(C)cc(NC(=O)CCc2nc3sc4c(c3c(=O)[nH]2)CCCC4)c1`: 249 nM; `Cc1ccc(-c2nc(NC(=O)CSc3nnnn3-c3ccccc3)ns2)cc1`: 404 nM. As to `O=c1cc(N2CCN(c3cccc(Cl)c3)CC2)[nH]c(=O)n1C1CCCCC1`, the IC50 is 72.7 nM. The same measure for `COc1ccc(S(=O)(=O)N2CCCCC2)cc1NC(=S)Nc1ccccc1`: 2630 nM.
